Assay results published in the NIST ThermoML archive (doi:10.1021/je060415l).
“And” between values parts separate entries of the source, which are not always exact repeats. Identical values can stand only once.

Test: isobaric coefficient of expansion
Conditions: Liquid, expansion method

CO [methanol]
Conditions	isobaric coefficient of expansion
196.17 K, 590 kPa	0.00112 1/K
196.97 K, 80030 kPa	0.000894 1/K
198.11 K, 590 kPa	0.00112 1/K
199.3 K, 80030 kPa	0.000894 1/K
200.13 K, 590 kPa	0.00112 1/K
201.61 K, 80030 kPa	0.000891 1/K
202.14 K, 590 kPa	0.00112 1/K and 0.00113 1/K
203.94 K, 80030 kPa	0.000891 1/K
204.09 K, 590 kPa	0.00112 1/K
206.06 K, 590 kPa	0.00112 1/K
206.3 K, 80030 kPa	0.000888 1/K
208.02 K, 590 kPa	0.00112 1/K
208.16 K, 20010 kPa	0.00105 1/K
208.68 K, 80030 kPa	0.000886 1/K
209.97 K, 590 kPa	0.00112 1/K and 0.00114 1/K
210.16 K, 20010 kPa	0.00104 1/K
210.17 K, 45100 kPa	0.000966 1/K
211.07 K, 80030 kPa	0.000883 1/K
211.93 K, 590 kPa	0.00111 1/K and 0.00112 1/K
212.17 K, 20010 kPa	0.00104 1/K
212.17 K, 45100 kPa	0.000968 1/K
213.46 K, 80030 kPa	0.00088 1/K
213.91 K, 590 kPa	0.00112 1/K and 0.00111 1/K
214.17 K, 20010 kPa	0.00104 1/K
214.17 K, 45100 kPa	0.000963 1/K
215.9 K, 590 kPa	0.00112 1/K
216 K, 80030 kPa	0.000874 1/K
216.17 K, 20010 kPa	0.00104 1/K
216.17 K, 45100 kPa	0.000964 1/K
217.87 K, 590 kPa	0.00112 1/K
218.17 K, 20010 kPa	0.00104 1/K
218.18 K, 45100 kPa	0.000965 1/K
218.19 K, 590 kPa	0.00111 1/K
219.84 K, 590 kPa	0.00112 1/K
220.16 K, 590 kPa	0.00113 1/K
220.18 K, 20010 kPa	0.00104 1/K
220.18 K, 45100 kPa	0.000962 1/K
220.38 K, 80030 kPa	0.000872 1/K
221.82 K, 590 kPa	0.00111 1/K
222.14 K, 590 kPa	0.00111 1/K
222.17 K, 20010 kPa	0.00104 1/K
222.18 K, 45100 kPa	0.000966 1/K
222.8 K, 80030 kPa	0.000867 1/K
223.82 K, 590 kPa	0.00112 1/K
224.15 K, 590 kPa	0.00111 1/K
224.17 K, 20010 kPa	0.00104 1/K
224.17 K, 45100 kPa	0.00096 1/K
225.25 K, 80030 kPa	0.000863 1/K
225.86 K, 590 kPa	0.00111 1/K
226.15 K, 590 kPa	0.00112 1/K
226.16 K, 45100 kPa	0.000962 1/K
226.17 K, 20010 kPa	0.00104 1/K
227.72 K, 80030 kPa	0.000861 1/K
227.95 K, 590 kPa	0.00112 1/K
228.15 K, 590 kPa	0.00112 1/K
228.16 K, 20010 kPa	0.00104 1/K
228.16 K, 45100 kPa	0.000958 1/K
230.04 K, 590 kPa	0.00111 1/K
230.16 K, 20010 kPa	0.00105 1/K
230.17 K, 590 kPa	0.00112 1/K
230.17 K, 45100 kPa	0.000957 1/K
230.17 K, 80030 kPa	0.00086 1/K
232.14 K, 590 kPa	0.00112 1/K
232.17 K, 20010 kPa	0.00104 1/K
232.17 K, 45100 kPa	0.000959 1/K
232.18 K, 590 kPa	0.00113 1/K
232.57 K, 80030 kPa	0.000869 1/K
234.16 K, 590 kPa	0.00113 1/K
234.17 K, 20010 kPa	0.00103 1/K
234.17 K, 45100 kPa	0.000956 1/K
234.19 K, 590 kPa	0.00112 1/K
234.98 K, 80030 kPa	0.000859 1/K
236.16 K, 590 kPa	0.00112 1/K
236.17 K, 20010 kPa	0.00104 1/K
236.17 K, 45100 kPa	0.000953 1/K
236.18 K, 590 kPa	0.00112 1/K
237.42 K, 80030 kPa	0.00086 1/K
238.17 K, 590 kPa	0.00112 1/K
238.17 K, 20010 kPa	0.00103 1/K
238.17 K, 45100 kPa	0.000949 1/K
239.85 K, 80030 kPa	0.000855 1/K
240.17 K, 590 kPa	0.00112 1/K
240.17 K, 45100 kPa	0.000949 1/K
240.25 K, 20010 kPa	0.00103 1/K
242.17 K, 590 kPa	0.00112 1/K
242.17 K, 45100 kPa	0.000942 1/K
242.25 K, 20010 kPa	0.00103 1/K
242.29 K, 80030 kPa	0.000853 1/K
244.18 K, 590 kPa	0.00112 1/K
244.18 K, 45100 kPa	0.000941 1/K
244.19 K, 20010 kPa	0.00103 1/K
244.74 K, 80030 kPa	0.000851 1/K
246.19 K, 590 kPa	0.00112 1/K
246.19 K, 20010 kPa	0.00104 1/K
247.21 K, 80030 kPa	0.000847 1/K
248.17 K, 20010 kPa	0.00104 1/K
